Experimental data as given in patent publication US11479556B1, “Bifunctional compounds for degrading BTK via ubiquitin proteosome pathway” (NURIX THERAPEUTICS, INC., priority 2018, dated 2022).

Target: T1, BTK (Homo sapiens, UniProt Q06187)
T1 construct: endogenous in cells; host or cells: TMD8 cells
Assay: Cellular BTK HTRF assay (BTK degradation) in TMD8 cells
Format: cell-based
Conditions: four hours incubation, Total-BTK HTRF relative to DMSO-treated cells
Protocol: Example 66: BTK Degradation Assay
TMD8 cells were obtained from Tokyo Medical and Dental University and were grown in alpha-MEM (Fisher 12571063) supplemented with 10% heat-inactivated FBS (Corning Premium Fetal Bovine Serum from Fisher, MT35015CV).
Compounds of the present invention were added to 50,000 TMD8 cells in round-bottom 96 well plates with a final DMSO concentration of […] and were incubated at 37° C. 5% CO2 for four hours. BTK levels were determined using Cisbio Total-BTK HTRF ([…] Time-Resolved Fluorescence) kit (63ADK064PEG) according to manufacturer's protocol. Briefly, cells were incubated in 1× supplied lysis buffer for 30 minutes. In an opaque white low volume 96 well plate (Cisbio, 66PL96005), cell lysate was combined with two different specific BTK antibodies, one conjugated with Eu^3+-Cryptate FRET donor and one conjugated with d2 FRET acceptor. Assay controls include wells containing cell lysate with only the Eu^3+-Cryptate FRET donor antibody and wells containing both HTRF antibodies and lysis buffer without cells or control lysate provided by Cisbio. HTRF ratio was calculated as (acceptor signal at 665 nm/donor signal at 620 nm)×10^4. Background HTRF levels were determined from the control well containing the donor, but no acceptor, antibody. Background HTRF levels were subtracted from all samples. Readouts were reported as HTRF levels relative to HTRF levels of DMSO-treated cells. Four-parameter non-linear regressions were performed in GraphPad Prism 7.02 to obtain DC50 values. DC50 values are provided in Table 3, wherein A<5.0 nM, 5.0 nM≤B≤15 nM, and 15 nM<C.

T1 sequence (Q06187 whole entry): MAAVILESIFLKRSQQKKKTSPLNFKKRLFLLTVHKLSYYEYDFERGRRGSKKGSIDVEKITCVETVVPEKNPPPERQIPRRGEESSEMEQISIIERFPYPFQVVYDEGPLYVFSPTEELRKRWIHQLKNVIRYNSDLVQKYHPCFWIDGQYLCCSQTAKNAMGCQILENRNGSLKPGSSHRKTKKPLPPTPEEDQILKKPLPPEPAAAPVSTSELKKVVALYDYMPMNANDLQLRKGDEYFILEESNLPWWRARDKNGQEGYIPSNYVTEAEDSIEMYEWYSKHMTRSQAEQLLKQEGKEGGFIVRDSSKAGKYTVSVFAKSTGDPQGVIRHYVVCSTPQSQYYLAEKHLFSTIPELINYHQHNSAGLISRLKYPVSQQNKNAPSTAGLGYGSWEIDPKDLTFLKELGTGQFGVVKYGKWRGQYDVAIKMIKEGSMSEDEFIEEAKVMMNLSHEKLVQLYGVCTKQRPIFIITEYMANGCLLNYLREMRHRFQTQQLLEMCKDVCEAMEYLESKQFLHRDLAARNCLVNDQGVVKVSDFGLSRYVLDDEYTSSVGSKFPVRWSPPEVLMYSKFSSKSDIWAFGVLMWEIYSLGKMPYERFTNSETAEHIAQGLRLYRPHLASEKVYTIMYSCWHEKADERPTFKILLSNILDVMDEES

| SMILES | DC50 [µM] |
| --- | --- |
| CN1CCN([C@@H]2CCCN(c3cnc(C(N)=O)c(Nc4ccc(C(=O)NCCOCCOCCOCCCc5cccc6c5CN(C5CCC(=O)NC5=O)C6=O)cc4)n3)C2)C1=O (stereo partly shown) [Compound 2] | > 0.015 |
| CN1CCN([C@@H]2CCCN(c3cnc(C(N)=O)c(Nc4ccc(C(=O)NCCOCCOCCOCCNc5cccc6c5C(=O)N(C5CCC(=O)NC5=O)C6=O)cc4)n3)C2)C1=O (stereo partly shown) [Compound 3] | > 0.015 |
| CN1CCN([C@@H]2CCCN(c3cnc(C(N)=O)c(Nc4ccc(OCCCNC(=O)CCCN5CCN(c6ccc7c(c6)C(=O)N(C6CCC(=O)NC6=O)C7=O)CC5)cc4)n3)C2)C1=O (stereo partly shown) [Compound 4] | > 0.015 |
| CN1CCN([C@@H]2CCCN(c3cnc(C(N)=O)c(Nc4ccc(OCCCNC(=O)[C@H]5C[C@@H](OCCCc6cccc7c6C(=O)N(C6CCC(=O)NC6=O)C7=O)C5)cc4)n3)C2)C1=O (stereo partly shown) [Compound 5] | > 0.015 |
| CN1CCN([C@@H]2CCCN(c3cnc(C(N)=O)c(Nc4ccc(OCCCNC(=O)CCCc5cccc6c5CN(C5CCC(=O)NC5=O)C6=O)cc4)n3)C2)C1=O (stereo partly shown) [Compound 6] | > 0.015 |
| CN1CCN([C@@H]2CCCN(c3cnc(C(N)=O)c(Nc4ccc(C5(C)CCN(C(=O)CCCc6nnc(Nc7cccc8c7CN(C7CCC(=O)NC7=O)C8=O)o6)CC5)cc4)n3)C2)C1=O (stereo partly shown) [Compound 7] | > 0.015 |
| CN1CCN([C@@H]2CCCN(c3cnc(C(N)=O)c(Nc4ccc(C(=O)NCCCCNc5cccc6c5C(=O)N(C5CCC(=O)NC5=O)C6=O)cc4)n3)C2)C1=O (stereo partly shown) [Compound 8] | 0.005 to 0.015 |
| CN1CCN([C@@H]2CCCN(c3cnc(C(N)=O)c(Nc4ccc(C(=O)NCCOCCc5cccc6c5CN(C5CCC(=O)NC5=O)C6=O)cc4)n3)C2)C1=O (stereo partly shown) [Compound 9] | > 0.015 |

Second part, the molecule after the results:

| DC50 [µM] | SMILES |
| --- | --- |
| 0.005 to 0.015 | CN1CCN([C@@H]2CCCN(c3cnc(C(N)=O)c(Nc4ccc(C5(C)CCN(C(=O)CCOCCCc6ccc7c(c6)C(=O)N(C6CCC(=O)NC6=O)C7=O)CC5)cc4)n3)C2)C1=O (stereo partly shown) [Compound 10] |
| < 0.005 | CN1CCN([C@@H]2CCCN(c3cnc(C(N)=O)c(Nc4ccc(C5(C)CCN(C(=O)CCCN6CCN(c7ccc8c(c7)C(=O)N(C7CCC(=O)NC7=O)C8=O)CC6)CC5)cc4)n3)C2)C1=O (stereo partly shown) [Compound 11] |
| 0.005 to 0.015 | CN1CCN([C@@H]2CCCN(c3cnc(C(N)=O)c(Nc4ccc(N5CCN(C(=O)CN6CCN(CCc7cccc8c7CN(C7CCC(=O)NC7=O)C8=O)CC6)CC5)cc4)n3)C2)C1=O (stereo partly shown) [Compound 12] |
| 0.005 to 0.015 | CN1CCN([C@@H]2CCCN(c3cnc(C(N)=O)c(Nc4ccc(C5(C)CCN(C(=O)CN6CCN(CCc7cccc8c7CN(C7CCC(=O)NC7=O)C8=O)CC6)CC5)cc4)n3)C2)C1=O (stereo partly shown) [Compound 13] |
| < 0.005 | CN1CCN([C@@H]2CCCN(c3cnc(C(N)=O)c(Nc4ccc(N5CCN(CCCc6cccc7c6CN(C6CCC(=O)NC6=O)C7=O)CC5)cc4)n3)C2)C1=O (stereo partly shown) [Compound 15] |
| 0.005 to 0.015 | CN1CCN([C@@H]2CCCN(c3cnc(C(N)=O)c(Nc4ccc(C5(C)CCN(CCCc6cccc7c6CN(C6CCC(=O)NC6=O)C7=O)CC5)cc4)n3)C2)C1=O (stereo partly shown) [Compound 16] |
| 0.005 to 0.015 | CN1CCN([C@@H]2CCCN(c3cnc(C(N)=O)c(Nc4ccc(C5(C)CCN(CCOCCCc6cccc7c6C(=O)N(C6CCC(=O)NC6=O)C7=O)CC5)cc4)n3)C2)C1=O (stereo partly shown) [Compound 18] |
| 0.005 to 0.015 | CN1CCN([C@@H]2CCCN(c3cnc(C(N)=O)c(Nc4ccc(N5CCN(C(=O)CCOCCNc6cccc7c6C(=O)N(C6CCC(=O)NC6=O)C7=O)CC5)cc4)n3)C2)C1=O (stereo partly shown) [Compound 19] |
| < 0.005 | CN1CCN([C@@H]2CCCN(c3cnc(C(N)=O)c(Nc4ccc(C5(C)CCN(C(=O)CN6CCN(CCCc7cccc8c7CN(C7CCC(=O)NC7=O)C8=O)CC6)CC5)cc4)n3)C2)C1=O (stereo partly shown) [Compound 20] |
| 0.005 to 0.015 | CN1CCN([C@@H]2CCCN(c3cnc(C(N)=O)c(Nc4ccc(C5(C)CCN(CCCCc6cccc7c6CN(C6CCC(=O)NC6=O)C7=O)CC5)cc4)n3)C2)C1=O (stereo partly shown) [Compound 21] |
| 0.005 to 0.015 | CN1CCN([C@@H]2CCCN(c3cnc(C(N)=O)c(Nc4ccc(C5(C)CCN(C(=O)CN6CCN(CCCc7cccc8c7C(=O)N(C7CCC(=O)NC7=O)C8=O)CC6)CC5)cc4)n3)C2)C1=O (stereo partly shown) [Compound 22] |
